Experimental data reported in PubChem BioAssay (NCI).
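Following 48 hours of exposure in 96-well plates, responses at five concentrations were used to interpolate endpoints linearly. Abbreviation: GI50, concentration required for 50% inhibition of growth. Definition used: TGI = concentration required for complete inhibition of growth.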

Tests used:
Experiment in all cases: NCI anticancer screen, dose series, 48 h
[1] = test system: 786-0 renal
[2] = test system: COLO 205 colon
[3] = test system: HOP-62 NSCLC
[4] = test system: K-562 leukemia
[5] = test system: NCI-H226 lung
[6] = test system: NCI-H522 lung
[7] = test system: OVCAR-3 ovarian
[8] = test system: OVCAR-5 ovarian
[9] = test system: SW-620 colon
[10] = test system: U251 CNS

## CC(=O)c1cc(CC2Cc3cc4c(cc3C2=O)CCC4)cc2c1CCC2 (centres undefined)
[1]
  TGI: > 100 µM
[2]
  TGI: 76.2 µM
[3]
  TGI: > 100 µM
[4]
  TGI: > 100 µM
[5]
  TGI: > 100 µM
[6]
  TGI: > 100 µM
[7]
  TGI: > 100 µM
[8]
  TGI: > 100 µM
[9]
  TGI: > 100 µM
[10]
  TGI: > 100 µM

## CC(O)CC(=O)CO[C@H]1[C@H](O)[C@@H](O)[C@@H](O)[C@@H]2NC(=O)c3c(cc4c(c3O)OCO4)[C@H]21 (some centres undefined)
[1]
  TGI: 0.485 µM
[2]
  TGI: 0.135 µM
[3]
  TGI: 0.319 µM
[4]
  TGI: 4.14 µM
[5]
  TGI: 1.49 µM
[6]
  TGI: 0.0962 µM
[7]
  TGI: 0.609 µM
[8]
  TGI: 0.48 µM
[9]
  TGI: > 100 µM
[10]
  TGI: 0.307 µM

## COC(=O)CNC(=O)CNC(=O)CSc1nnc(COc2ccc(Cl)cc2)n1-c1ccccc1
[1]
  TGI: > 100 µM
[2]
  TGI: > 100 µM
[3]
  TGI: > 100 µM
[4]
  TGI: > 100 µM
[5]
  TGI: > 100 µM
[6]
  TGI: 31.8 µM
[7]
  TGI: 37.6 µM
[8]
  TGI: > 100 µM
[9]
  TGI: > 100 µM
[10]
  TGI: > 100 µM

## Clc1ccc(OCc2nnc3sc(SSc4nn5c(COc6ccc(Cl)cc6)nnc5s4)nn23)cc1
[1]
  TGI: > 100 µM
[2]
  TGI: > 100 µM
[3]
  TGI: > 100 µM
[4]
  TGI: > 100 µM
[5]
  TGI: > 100 µM
[6]
  TGI: > 100 µM
[7]
  GI50: 35.3 µM
  TGI: 80.4 µM
[8]
  TGI: > 100 µM
[9]
  TGI: > 100 µM
[10]
  TGI: > 100 µM

## CC(=O)c1cc2c(s1)C(=O)c1ccsc1C2=O
[1]
  TGI: 4.16 µM
[2]
  TGI: 40.5 µM
[3]
  TGI: 0.916 µM
[4]
  TGI: 3.57 µM
[5]
  TGI: 3.75 µM
[6]
  TGI: 0.486 µM
[7]
  TGI: 0.729 µM
[8]
  TGI: 2.03 µM
[9]
  TGI: 0.37 µM
[10]
  TGI: 0.785 µM

## CCOc1cc(/C=N/c2nc3cc4sc(/N=C/c5ccc(O)c(OCC)c5)nc4cc3s2)ccc1O
[1]
  TGI: > 100 µM
[2]
  TGI: > 100 µM
[3]
  TGI: > 100 µM
[4]
  TGI: > 100 µM
[5]
  TGI: > 100 µM
[6]
  TGI: > 100 µM
[7]
  TGI: > 100 µM
[8]
  TGI: > 100 µM
[9]
  TGI: > 100 µM
[10]
  TGI: > 100 µM

## CSCCC(NC(=O)Cc1ccc(C(=O)c2ccccc2)cc1)C(=O)N1CCN(CCCCN2c3ccccc3Sc3cc(N=[N+]=[N-])ccc32)CC1 (centres undefined)
[1]
  TGI: > 100 µM
[2]
  TGI: > 100 µM
[3]
  TGI: > 100 µM
[4]
  TGI: > 100 µM
[5]
  TGI: > 100 µM
[6]
  TGI: > 100 µM
[7]
  TGI: > 100 µM
[8]
  TGI: > 100 µM
[10]
  TGI: > 100 µM

## O=[N+]([O-])c1ccc(NNN=Nc2ccc(-c3nc4ccccc4[nH]3)cc2)c([N+](=O)[O-])c1
[1]
  TGI: > 100 µM
[2]
  TGI: > 100 µM
[3]
  TGI: > 100 µM
[4]
  TGI: 79.7 µM
[5]
  TGI: > 100 µM
[6]
  TGI: 61 µM
[7]
  TGI: > 100 µM
[8]
  TGI: > 100 µM
[9]
  TGI: > 100 µM
[10]
  TGI: > 100 µM

## CC1=NNC(=O)C1C1CC(c2c[nH]c3ccccc23)=NN(c2ccccc2)C1=O (centres undefined)
[1]
  TGI: 57.7 µM
[2]
  TGI: > 100 µM
[3]
  TGI: > 100 µM
[4]
  TGI: > 100 µM
[5]
  TGI: > 100 µM
[6]
  TGI: 77.9 µM
[7]
  TGI: > 100 µM
[8]
  TGI: > 100 µM
[9]
  TGI: > 100 µM
[10]
  TGI: > 100 µM

## O=C(c1cc(Cl)cc(Cl)c1)N(Cc1cccnc1)C(=S)N(Cc1cccnc1)C(=O)c1cc(Cl)cc(Cl)c1
[1]
  TGI: 73.8 µM
[2]
  TGI: 38.5 µM
[3]
  TGI: 75.1 µM
[4]
  TGI: > 100 µM
[5]
  TGI: > 100 µM
[6]
  TGI: 49 µM
[7]
  TGI: 61.6 µM
[8]
  TGI: > 100 µM
[9]
  TGI: > 100 µM
[10]
  TGI: 61.3 µM

## COC(O)C(=O)c1c2c(cc3c1CCC3)CCC2 (centres undefined)
[1]
  TGI: > 100 µM
[2]
  TGI: > 100 µM
[3]
  TGI: > 100 µM
[4]
  TGI: > 100 µM
[5]
  TGI: > 100 µM
[6]
  TGI: > 100 µM
[7]
  TGI: > 100 µM
[8]
  TGI: > 100 µM
[9]
  TGI: > 100 µM
[10]
  TGI: > 100 µM

## COc1ccc2nc3cc([N+](=O)[O-])ccc3c(NNc3ccc([N+](=O)[O-])cc3)c2c1
[1]
  TGI: > 100 µM
[2]
  TGI: > 100 µM
[3]
  TGI: > 100 µM
[4]
  TGI: > 100 µM
[5]
  TGI: > 56.4 µM
[6]
  TGI: > 100 µM
[7]
  TGI: > 100 µM
[8]
  TGI: > 100 µM
[9]
  TGI: > 64.7 µM
[10]
  TGI: > 93.7 µM

## N#CC(NNC(=O)c1c(Cl)c(Cl)c(Cl)c(Cl)c1-c1nc2ccc(C(=O)c3ccccc3)cc2[nH]1)c1ccccc1 (centres undefined)
[1]
  TGI: 42.9 µM
[2]
  TGI: 24.3 µM
[3]
  TGI: 63.7 µM
[4]
  TGI: 19.3 µM
[5]
  TGI: 28.3 µM
[6]
  TGI: 18 µM
[7]
  TGI: 57 µM
[8]
  TGI: > 100 µM
[9]
  TGI: > 100 µM
[10]
  TGI: > 100 µM

## COc1ccc(OC)c(N=Cc2cc(OC)c(OC)c(OC)c2)c1
[1]
  TGI: > 100 µM
[2]
  TGI: > 100 µM
[3]
  TGI: > 100 µM
[4]
  TGI: > 100 µM
[5]
  TGI: > 100 µM
[6]
  TGI: 57.7 µM
[7]
  TGI: > 40.3 µM
[8]
  TGI: > 100 µM
[9]
  TGI: > 100 µM
[10]
  TGI: > 100 µM

## C=C1C2C[C@@H]3O[C@H]4C[C@H]5O[C@@]6(C[C@@H]7O[C@]8(C[C@H](C)[C@@H]9O[C@@H]%10CC(C=O)O[C@@H]%10C[C@@H]9O8)C[C@H](C)[C@@H]7O6)C[C@H]5O[C@H]4[C@H](C)[C@H]3OC(=O)C[C@H]3CC[C@@H]4OC5[C@H]6O[C@]7(CC[C@H]8CC(=C)[C@H](CC[C@@H](C[C@H]1C)O2)O8)CC6O[C@@H]5[C@@H](O7)[C@H]4O3 (some centres undefined)
[1]
  TGI: 0.971 µM
[2]
  TGI: 0.00103 µM
[3]
  TGI: > 1 µM
[4]
  TGI: > 1 µM
[5]
  TGI: 0.0119 µM
[6]
  TGI: < 0.0001 µM
[7]
  TGI: > 1 µM
[9]
  TGI: > 1 µM
[10]
  TGI: > 1 µM

## COC(=O)CN=C1NC(=S)N(Cc2ccc(OC)cc2)C12CCCC2
[1]
  TGI: > 100 µM
[2]
  TGI: > 100 µM
[3]
  TGI: > 100 µM
[4]
  TGI: > 100 µM
[5]
  TGI: > 100 µM
[6]
  TGI: > 100 µM
[7]
  TGI: > 100 µM
[8]
  TGI: > 100 µM
[9]
  TGI: > 100 µM
[10]
  TGI: > 100 µM

## CCCCCCCCCC(=O)NCCc1c[nH]c2ccc(OC)cc12
[1]
  TGI: 38.7 µM
[2]
  TGI: 55.7 µM
[3]
  TGI: 31.1 µM
[4]
  TGI: > 100 µM
[5]
  TGI: 42.1 µM
[6]
  TGI: 32.1 µM
[7]
  TGI: 30.3 µM
[8]
  TGI: 61.2 µM
[9]
  TGI: 34.5 µM
[10]
  TGI: 31.2 µM

## O=C1CNc2cc(N3CCOCC3)ccc2N1
[1]
  TGI: > 100 µM
[2]
  TGI: > 100 µM
[3]
  TGI: > 100 µM
[4]
  TGI: > 100 µM
[5]
  TGI: > 100 µM
[6]
  TGI: > 100 µM
[7]
  TGI: > 100 µM
[8]
  TGI: > 100 µM
[9]
  TGI: > 100 µM
[10]
  TGI: > 100 µM

## Brc1c2c(c(Br)c3nsnc13)N=S=N2
[1]
  TGI: 41.6 µM
[2]
  TGI: > 60.1 µM
[3]
  TGI: 15.9 µM
[4]
  TGI: 33.3 µM
[5]
  TGI: > 76.6 µM
[6]
  TGI: > 57.5 µM
[7]
  TGI: 68.6 µM
[8]
  TGI: 64.3 µM
[9]
  TGI: > 68.5 µM
[10]
  TGI: 46.7 µM

## CCOc1ccc(N2C(=O)NC3(c4ccccc4)N(C)C(=O)N(C)C23c2ccccc2)cc1 (centres undefined)
[1]
  TGI: > 100 µM
[2]
  TGI: > 100 µM
[3]
  TGI: > 100 µM
[4]
  TGI: > 100 µM
[5]
  TGI: > 100 µM
[6]
  TGI: > 100 µM
[7]
  TGI: > 100 µM
[8]
  TGI: > 100 µM
[9]
  TGI: > 100 µM
[10]
  TGI: > 100 µM
